According to patent US12545639B2, “3-substituted phenylamidine compounds, preparation and use thereof” (PI INDUSTRIES LTD., priority 2019, dated 2026):

What was measured:
Pyricularia oryzae = assay: microbe, parasite or virus in culture; type: cell-based; conditions: 168 h, read-out: control compared to the untreated check (radial growth)
Rhizoctonia solani = Rhizoctonia solani (rice sheath blight/potato black scurf) in vitro test, radial growth on potato dextrose agar; type: cell-based; conditions: 168 h, 300 ppm in potato dextrose agar, 25° C., 60% relative humidity, seven days, read-out: control compared to the untreated check (radial growth)
Alternaria solani = Alternaria solani (early blight of tomato/potato) in vitro test, radial growth on potato dextrose agar; type: cell-based; conditions: 168 h, 300 ppm in potato dextrose agar, 25° C., 60% relative humidity, seven days, read-out: control compared to the untreated check (radial growth)
Colletotrichum capsici = Colletotrichum capsici (anthracnose) in vitro test, radial growth on potato dextrose agar; type: cell-based; conditions: Colletotrichum truncatum, 168 h; 300 ppm in potato dextrose agar; 25° C., 60% relative humidity, seven days; read-out: control compared to the untreated check (radial growth)
Botrytis cinerea = Botrytis cinerea (gray mold) in vitro test, radial growth on potato dextrose agar; type: cell-based; conditions: 168 h, 300 ppm in potato dextrose agar, 22° C., 90% relative humidity, seven days, read-out: control compared to the untreated check (radial growth)
Phakopsora pachyrhizi = Phakopsora pachyrhizi test in soybean, preventive, in vivo on plants; conditions: in Glycine max, read-out: Efficacy (% control), disease severity compared to the untreated check
[1] = tested on: Septoria lycopersici/Corynespora cassicola (CORYCA); assay: Septoria lycopersici/Corynespora cassicola (CORYCA) (leaf spot of tomato) in vitro test, radial growth on potato dextrose agar; type: cell-based; conditions: 168 h, 300 ppm in potato dextrose agar, 25° C., 70% relative humidity, seven days, read-out: control compared to the untreated check (radial growth)

CCN(C)C=Nc1cc(C)cc(N(C)c2ccccc2F)c1C [Compound 7, N-ethyl-N′-(3-((2-fluorophenyl)(methyl)amino)-2,5-dimethylphenyl)-N-methylformimidamide]
≥ 70%: inhibition of growth at 300 ppm (Pyricularia oryzae) | inhibition of growth at 300 ppm (Rhizoctonia solani) | inhibition of growth at 300 ppm (Alternaria solani) | inhibition of growth at 300 ppm (Colletotrichum capsici)

CCN(C)C=Nc1cc(C)cc(Cc2ccc(F)cc2C)c1Cl [Compound 65, N′-(2-chloro-3-(4-fluoro-2-methylbenzyl)-5-methylphenyl)-N-ethyl-N-methylformimidamide]
≥ 70%: inhibition of growth at 300 ppm (Pyricularia oryzae) | inhibition of growth at 300 ppm (Rhizoctonia solani) | inhibition of growth at 300 ppm (Botrytis cinerea) | inhibition of growth at 300 ppm (Alternaria solani) | inhibition of growth at 300 ppm (Colletotrichum capsici) | pest or weed control at 500 ppm (Phakopsora pachyrhizi)

CCN(C)C=Nc1cc(C)cc(Cc2ccccc2Br)c1Cl [Compound 45, N′-(3-(2-bromobenzyl)-2-chloro-5-methylphenyl)-N-ethyl-N-methylformimidamide]
≥ 70%: inhibition of growth at 300 ppm (Pyricularia oryzae) | inhibition of growth at 300 ppm (Rhizoctonia solani) | inhibition of growth at 300 ppm (Botrytis cinerea) | inhibition of growth at 300 ppm (Alternaria solani) | inhibition of growth at 300 ppm (Colletotrichum capsici) | pest or weed control at 500 ppm (Phakopsora pachyrhizi)

CCN(C)C=Nc1cc(C)cc(N(C)c2ccc(Cl)cc2)c1Cl [Compound 62, N′-(2-chloro-3-((4-chlorophenyl)(methyl)amino)-5-methylphenyl)-N-ethyl-N-methylformimidamide]
≥ 70%: inhibition of growth at 300 ppm (Botrytis cinerea) | inhibition of growth at 300 ppm (Alternaria solani) | inhibition of growth at 300 ppm (Colletotrichum capsici)

CCN(C)C=Nc1cc(C)cc(Nc2ccc(F)cc2F)c1Cl [Compound 75, N′-(2-chloro-3-((2,4-difluorophenyl)amino)-5-methylphenyl)-N-ethyl-N-methylformimidamide]
≥ 70%: inhibition of growth at 300 ppm (Pyricularia oryzae) | inhibition of growth at 300 ppm (Rhizoctonia solani) | inhibition of growth at 300 ppm (Alternaria solani) | inhibition of growth at 300 ppm (Colletotrichum capsici)

CCN(C)C=Nc1cc(F)cc(N(C)c2cccc(C)c2F)c1C [Compound 152, N-ethyl-N′-(5-fluoro-3-((2-fluoro-3-methylphenyl)(methyl)amino)-2-methylphenyl)-N-methylformimidamide]
≥ 70%: inhibition of growth at 300 ppm (Pyricularia oryzae) | inhibition of growth at 300 ppm (Rhizoctonia solani) | inhibition of growth at 300 ppm (Botrytis cinerea) | inhibition of growth at 300 ppm (Alternaria solani) | inhibition of growth at 300 ppm (Colletotrichum capsici) | pest or weed control at 500 ppm (Phakopsora pachyrhizi)

CCN(C)C=Nc1cc(C)cc(N(C)c2cccc(F)c2)c1Cl [Compound 40, N′-(2-chloro-3-((3-fluorophenyl)(methyl)amino)-5-methylphenyl)-N-ethyl-N-methylformimidamide]
≥ 70%: inhibition of growth at 300 ppm (Pyricularia oryzae) | inhibition of growth at 300 ppm (Botrytis cinerea) | inhibition of growth at 300 ppm (Alternaria solani) | inhibition of growth at 300 ppm (Colletotrichum capsici) | pest or weed control at 500 ppm (Phakopsora pachyrhizi)

CCN(C)C=Nc1cc(Cl)cc(Cc2cccc(Br)c2)c1C [Compound 245, N′-(3-(3-bromobenzyl)-5-chloro-2-methylphenyl)-N-ethyl-N-methylformimidamide]
≥ 70%: inhibition of growth at 300 ppm (Pyricularia oryzae) | inhibition of growth at 300 ppm (Rhizoctonia solani) | inhibition of growth at 300 ppm (Botrytis cinerea) | inhibition of growth at 300 ppm (Alternaria solani) | inhibition of growth at 300 ppm (Colletotrichum capsici)

CCN(C)C=Nc1cc(F)cc(Cc2ccc(C)cc2)c1C [Compound 171, N-ethyl-N′-(5-fluoro-2-methyl-3-(4-methylbenzyl)phenyl)-N-methylformimidamide]
≥ 70%: inhibition of growth at 300 ppm (Pyricularia oryzae) | inhibition of growth at 300 ppm (Rhizoctonia solani) | inhibition of growth at 300 ppm (Botrytis cinerea) | inhibition of growth at 300 ppm (Alternaria solani) | inhibition of growth at 300 ppm (Colletotrichum capsici)

CCN(C)C=Nc1cc(F)cc(Nc2ccc(OC)c(F)c2)c1C [Compound 254, N-ethyl-N′-(5-fluoro-3-((3-fluoro-4-methoxyphenyl)amino)-2-methylphenyl)-N-methylformimidamide]
≥ 70%: inhibition of growth at 300 ppm (Pyricularia oryzae) | inhibition of growth at 300 ppm (Rhizoctonia solani) | inhibition of growth at 300 ppm (Alternaria solani) | inhibition of growth at 300 ppm (Colletotrichum capsici)

CCN(C)C=Nc1cc(C)cc(N(C)c2cccc(C)c2F)c1Cl [Compound 139, N′-(2-chloro-3-((2-fluoro-3-methylphenyl)(methyl)amino)-5-methylphenyl)-N-ethyl-N-methylformimidamide]
≥ 70%: inhibition of growth at 300 ppm (Pyricularia oryzae) | inhibition of growth at 300 ppm (Colletotrichum capsici)

CCN(C)C=Nc1cc(C)cc(Nc2ccc(OC)c(F)c2)c1Cl [Compound 255, N′-(2-chloro-3-((3-fluoro-4-methoxyphenyl)amino)-5-methylphenyl)-N-ethyl-N-methylformimidamide]
≥ 70%: inhibition of growth at 300 ppm (Pyricularia oryzae) | inhibition of growth at 300 ppm (Rhizoctonia solani) | inhibition of growth at 300 ppm (Alternaria solani) | inhibition of growth at 300 ppm (Colletotrichum capsici) | pest or weed control at 500 ppm (Phakopsora pachyrhizi)

CCN(C)C=Nc1cc(F)cc(N(C)c2cccc(OC)c2)c1C [Compound 39, N-ethyl-N′-(5-fluoro-3-((3-methoxyphenyl)(methyl)amino)-2-methylphenyl)-N-methylformimidamide]
≥ 70%: inhibition of growth at 300 ppm (Pyricularia oryzae) | inhibition of growth at 300 ppm (Alternaria solani) | inhibition of growth at 300 ppm (Colletotrichum capsici) | pest or weed control at 500 ppm (Phakopsora pachyrhizi)

CCN(C)C=Nc1cc(C)cc(Cc2cccc(C#N)c2)c1Cl [Compound 48, N′-(2-chloro-3-(3-cyanobenzyl)-5-methylphenyl)-N-ethyl-N-methylformimidamide]
≥ 70%: inhibition of growth at 300 ppm (Pyricularia oryzae) | inhibition of growth at 300 ppm (Rhizoctonia solani) | inhibition of growth at 300 ppm (Alternaria solani) | inhibition of growth at 300 ppm (Colletotrichum capsici)

CCN(C)C=Nc1cc(C)cc(Cc2cccc(Cl)c2)c1Cl [Compound 27, N′-(2-chloro-3-(3-chlorobenzyl)-5-methylphenyl)-N-ethyl-N-methylformimidamide]
≥ 70%: inhibition of growth at 300 ppm (Rhizoctonia solani) | inhibition of growth at 300 ppm (Botrytis cinerea) | inhibition of growth at 300 ppm (Alternaria solani) | inhibition of growth at 300 ppm (Colletotrichum capsici)

CCN(C)C=Nc1cc(C)cc(N(C)c2ccc(Cl)cc2F)c1Cl [Compound 156, N′-(2-chloro-3-((4-chloro-2-fluorophenyl)(methyl)amino)-5-methylphenyl)-N-ethyl-N-methylformimidamide]
≥ 70%: inhibition of growth at 300 ppm (Alternaria solani) | inhibition of growth at 300 ppm (Colletotrichum capsici) | pest or weed control at 500 ppm (Phakopsora pachyrhizi)

CCN(C)C=Nc1cc(F)cc(Nc2ccc3ncsc3c2)c1C [Compound 225, N′-(3-(benzo[d]thiazol-6-ylamino)-5-fluoro-2-methylphenyl)-N-ethyl-N-methylformimidamide]
≥ 70%: inhibition of growth at 300 ppm (Pyricularia oryzae) | inhibition of growth at 300 ppm (Alternaria solani) | inhibition of growth at 300 ppm (Colletotrichum capsici)

CCN(C)C=Nc1cc(Cl)cc(Cc2ccccc2C(F)(F)F)c1C [Compound 244, N′-(5-chloro-2-methyl-3-(2-(trifluoromethyl)benzyl)phenyl)-N-ethyl-N-methylformimidamide]
≥ 70%: inhibition of growth at 300 ppm (Pyricularia oryzae) | inhibition of growth at 300 ppm (Rhizoctonia solani) | inhibition of growth at 300 ppm (Botrytis cinerea) | inhibition of growth at 300 ppm (Alternaria solani) | inhibition of growth at 300 ppm (Colletotrichum capsici)

CCN(C)C=Nc1cc(C)cc(Nc2ccc(OC)cc2)c1Cl [Compound 61, N′-(2-chloro-3-((4-methoxyphenyl)amino)-5-methylphenyl)-N-ethyl-N-methylformimidamide]
≥ 70%: inhibition of growth at 300 ppm (Pyricularia oryzae) | inhibition of growth at 300 ppm (Rhizoctonia solani) | inhibition of growth at 300 ppm (Alternaria solani) | inhibition of growth at 300 ppm (Colletotrichum capsici)

CCN(C)C=Nc1cc(C)cc(N(C)c2cccc(Cl)c2)c1Cl [Compound 41, N′-(2-chloro-3-((3-chlorophenyl)(methyl)amino)-5-methylphenyl)-N-ethyl-N-methylformimidamide]
≥ 70%: inhibition of growth at 300 ppm (Pyricularia oryzae) | inhibition of growth at 300 ppm (Botrytis cinerea) | inhibition of growth at 300 ppm (Alternaria solani) | inhibition of growth at 300 ppm (Colletotrichum capsici) | pest or weed control at 500 ppm (Phakopsora pachyrhizi)

CCN(C)C=Nc1cc(F)cc(Cc2ccc(Cl)cc2)c1C [Compound 172, N′-(3-(4-chlorobenzyl)-5-fluoro-2-methylphenyl)-N-ethyl-N-methylformimidamide]
≥ 70%: inhibition of growth at 300 ppm (Pyricularia oryzae) | inhibition of growth at 300 ppm (Rhizoctonia solani) | inhibition of growth at 300 ppm (Botrytis cinerea) | inhibition of growth at 300 ppm (Alternaria solani) | inhibition of growth at 300 ppm (Colletotrichum capsici)

CCN(C)C=Nc1cc(F)cc(Nc2cccc(C(F)(F)F)n2)c1C [Compound 273, N-ethyl-N′-(5-fluoro-2-methyl-3-((6-(trifluoromethyl)pyridin-2-yl)amino)phenyl)-N-methylformimidamide]
≥ 70%: inhibition of growth at 300 ppm (Pyricularia oryzae) | inhibition of growth at 300 ppm (Rhizoctonia solani) | inhibition of growth at 300 ppm (Botrytis cinerea) | inhibition of growth at 300 ppm (Alternaria solani) | inhibition of growth at 300 ppm [1] | pest or weed control at 500 ppm (Phakopsora pachyrhizi)

CCN(C)C=Nc1cc(OC)cc(Cc2cccc(C(F)(F)F)c2)c1C [Compound 296, N-ethyl-N′-(5-methoxy-2-methyl-3-(3-(trifluoromethyl)benzyl)phenyl)-N-methylformimidamide]
≥ 70%: inhibition of growth at 300 ppm (Pyricularia oryzae) | inhibition of growth at 300 ppm (Rhizoctonia solani) | inhibition of growth at 300 ppm (Botrytis cinerea) | inhibition of growth at 300 ppm (Alternaria solani) | inhibition of growth at 300 ppm [1] | pest or weed control at 500 ppm (Phakopsora pachyrhizi)

CCN(C)C=Nc1cc(F)cc(Cc2cccc(F)c2)c1C [Compound 147, N-ethyl-N′-(5-fluoro-3-(3-fluorobenzyl)-2-methylphenyl)-N-methylformimidamide]
≥ 70%: inhibition of growth at 300 ppm (Pyricularia oryzae) | inhibition of growth at 300 ppm (Rhizoctonia solani) | inhibition of growth at 300 ppm (Botrytis cinerea) | inhibition of growth at 300 ppm (Alternaria solani) | inhibition of growth at 300 ppm [1] | pest or weed control at 500 ppm (Phakopsora pachyrhizi)
